Measurements taken from US8309546B2, “Morpholinopurine derivatives” (Daiichi Sankyo Company, Limited, priority 2008, dated 2012).

Key:
PI3Kα = PI3Kα (Homo sapiens, UniProt P42336); assay: PI3K kinase activity inhibition assay; assay type: biochemical; conditions: Kinase-Glo Plus ATP detection, read-out: IC50 against PI3K
How it was run: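 PI3Kα (50 nM solution) was reacted with 30 μM ATP and 45 μM PIP2 solutions, each in HEPES pH 7.4 with MgCl2 and DTT, for 2 h at room temperature. Remaining ATP was measured by Kinase-Glo Plus luminescence, and inhibition was derived from ATP consumed. IC50 was taken from curve fitting of the serial dilutions.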

[1] = system: human endometrial cancer cell strain AN3CA; assay: Cell growth inhibition test (MTT), AN3CA; assay type: cell-based; conditions: AN3-CA, 72 h, 3 days culture, read-out: concentration exhibiting anti-cell effect (GI50)
How it was run: (§1)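 AN3CA, IGROV1 and HT29 seeded at 5000, 1000 and 5000 cells/well; compound added next day, 3 days at 37° C, 5% CO2. MTT 4 h, formazan in DMSO read at 540 nm. GI50 is the concentration giving 50% growth rate (T/C %, corrected for day-of-addition absorbance), interpolated between two bracketing concentrations.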

[2] = system: human ovary cancer cell strain IGROV1; assay: Cell growth inhibition test (MTT), IGROV1; assay type: cell-based; conditions: IGROV-1, 72 h, IGROV1, 3 days culture, read-out: concentration exhibiting anti-cell effect (GI50)
How it was run: as §1

[3] = system: human colon cancer cell strain HT29; assay: Cell growth inhibition test (MTT), HT29; assay type: cell-based; conditions: HT-29, 72 h, HT29, 3 days culture, read-out: concentration exhibiting anti-cell effect (GI50)
How it was run: as §1

Sequence of PI3Kα (P42336 whole entry, species assumed): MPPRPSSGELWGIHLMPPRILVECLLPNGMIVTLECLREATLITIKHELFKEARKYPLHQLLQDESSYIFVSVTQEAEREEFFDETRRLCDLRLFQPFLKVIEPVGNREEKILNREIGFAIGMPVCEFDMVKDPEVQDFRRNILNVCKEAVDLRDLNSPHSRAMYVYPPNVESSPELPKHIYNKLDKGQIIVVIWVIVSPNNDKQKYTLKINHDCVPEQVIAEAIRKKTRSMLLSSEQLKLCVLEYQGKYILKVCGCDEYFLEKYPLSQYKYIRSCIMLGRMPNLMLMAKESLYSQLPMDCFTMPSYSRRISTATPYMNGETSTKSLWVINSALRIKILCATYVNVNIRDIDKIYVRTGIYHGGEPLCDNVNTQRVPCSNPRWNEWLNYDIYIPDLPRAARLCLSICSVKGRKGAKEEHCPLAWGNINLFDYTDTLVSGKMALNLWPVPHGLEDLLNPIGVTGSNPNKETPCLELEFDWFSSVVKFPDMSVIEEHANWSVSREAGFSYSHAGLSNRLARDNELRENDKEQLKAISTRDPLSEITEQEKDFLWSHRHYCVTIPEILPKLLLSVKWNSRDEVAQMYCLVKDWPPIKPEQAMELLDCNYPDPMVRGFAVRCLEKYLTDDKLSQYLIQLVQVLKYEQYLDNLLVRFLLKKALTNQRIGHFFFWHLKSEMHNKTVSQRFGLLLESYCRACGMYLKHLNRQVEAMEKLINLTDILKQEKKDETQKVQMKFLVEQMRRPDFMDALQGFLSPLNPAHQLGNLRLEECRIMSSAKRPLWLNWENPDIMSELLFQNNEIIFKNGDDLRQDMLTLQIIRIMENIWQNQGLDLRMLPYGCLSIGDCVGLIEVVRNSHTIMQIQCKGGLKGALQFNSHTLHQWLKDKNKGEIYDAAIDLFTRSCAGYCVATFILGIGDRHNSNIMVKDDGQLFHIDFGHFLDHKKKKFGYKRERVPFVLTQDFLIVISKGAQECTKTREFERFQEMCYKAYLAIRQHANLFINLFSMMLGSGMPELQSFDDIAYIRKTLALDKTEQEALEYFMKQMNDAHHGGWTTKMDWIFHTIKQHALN
Sequence of PI3Kα (P27986 whole entry partner, species assumed): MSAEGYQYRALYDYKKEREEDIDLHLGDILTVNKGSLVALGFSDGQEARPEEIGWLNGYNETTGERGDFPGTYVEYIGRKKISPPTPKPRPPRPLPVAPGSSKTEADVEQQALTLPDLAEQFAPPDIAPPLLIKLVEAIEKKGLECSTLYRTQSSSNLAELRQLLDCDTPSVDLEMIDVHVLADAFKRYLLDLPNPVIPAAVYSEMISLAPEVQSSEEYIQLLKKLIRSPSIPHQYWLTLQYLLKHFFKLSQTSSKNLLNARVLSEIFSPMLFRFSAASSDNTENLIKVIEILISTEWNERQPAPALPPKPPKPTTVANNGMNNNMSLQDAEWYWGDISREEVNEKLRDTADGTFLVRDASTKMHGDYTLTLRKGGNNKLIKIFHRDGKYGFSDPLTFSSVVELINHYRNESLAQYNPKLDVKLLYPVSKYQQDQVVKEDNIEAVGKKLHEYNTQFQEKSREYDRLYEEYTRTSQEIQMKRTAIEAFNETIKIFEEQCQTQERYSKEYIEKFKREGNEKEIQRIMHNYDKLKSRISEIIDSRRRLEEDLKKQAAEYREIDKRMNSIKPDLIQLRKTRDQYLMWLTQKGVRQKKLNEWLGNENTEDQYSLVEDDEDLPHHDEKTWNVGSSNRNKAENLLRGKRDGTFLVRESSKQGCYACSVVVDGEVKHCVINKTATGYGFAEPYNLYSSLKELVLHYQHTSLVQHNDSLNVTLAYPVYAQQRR

IC50 (PI3Kα) [µM] | GI50 [1] [µM] | GI50 [2] [µM] | GI50 [3] [µM] | Compound
< 0.01 | ≤ 5 | ≤ 5 | ≤ 5 | CNc1ncc(-c2nc(N3CCOCC3)c3nc(N4CCN(CC(=O)N(C)C)[C@H](C)C4)n(CC(F)(F)F)c3n2)cn1 [Example 87, N,N-Dimethyl-2-[(2R)-2-methyl-4-{2-[2-(methylamino)pyrimidin-5-yl]-6-morpholin-4-yl-9-(2,2,2-trifluoroethyl)-9H-purin-8-yl}piperazin-1-yl]acetamide]
< 0.01 | ≤ 5 | ≤ 5 | ≤ 5 | CC(C)Cn1c(N2CCN(C(=O)C[C@H](C)O)[C@H](C)C2)nc2c(N3CCOCC3)nc(-c3cnc(N)nc3)nc21 [Example 86, (2S)-4-{(2R)-4-[2-(2-Aminopyrimidin-5-yl)-9-isobutyl-6-morpholin-4-yl-9H-purin-8-yl]-2-methylpiperazin-1-yl}-4-oxobutan-2-ol]
< 0.01 | ≤ 5 | ≤ 5 | ≤ 5 | C[C@@H]1CN(c2nc3c(N4CCOCC4)nc(-c4cnc(N)nc4)nc3n2CC(F)(F)F)CCN1S(C)(=O)=O [Example 61, 5-{8-[(3R)-3-Methyl-4-(methylsulfonyl)piperazin-1-yl]-6-morpholin-4-yl-9-(2,2,2-trifluoroethyl)-9H-purin-2-yl}pyrimidin-2-amine]
< 0.01 | ≤ 5 | ≤ 5 | ≤ 5 | CC(=O)N1[C@H](C)CN(c2nc3c(N4CCOCC4)nc(-c4cnc(N)nc4)nc3n2CC(F)(F)F)C[C@@H]1C [Example 115, 5-[8-(4-Acetyl-cis-3,5-dimethylpiperazin-1-yl)-6-morpholin-4-yl-9-(2,2,2-trifluoroethyl)-9H-purin-2-yl]pyrimidin-2-amine]
0.01 to 0.02 | ≤ 5 | ≤ 5 | ≤ 5 | CC(=O)N1CCN(c2nc3c(N4CCOC[C@@H]4C)nc(-c4cnc(N)nc4C)nc3n2CC2CC2)CC1 [Example 128, 5-{8-(4-acetylpiperazin-1-yl)-9-(cyclopropylmethyl)-6-[(3S)-3-methylmorpholin-4-yl]-9H-purin-2-yl}-4-methylpyrimidin-2-amine]
< 0.01 | ≤ 5 | ≤ 5 | ≤ 5 | CNc1ncc(-c2nc(N3CCOCC3)c3nc(N4CCN(C(C)=O)CC4)n(CC(F)(F)F)c3n2)cn1 [Example 134, 5-[8-(4-Acetylpiperazin-1-yl)-6-morpholin-4-yl-9-(2,2,2-trifluoroethyl)-9H-purin-2-yl]-N-methylpyrimidin-2-amine]
< 0.01 | ≤ 5 | ≤ 5 | ≤ 5 | C[C@H]1CN(c2nc3c(N4CCOCC4)nc(-c4cnc(N)nc4)nc3n2CC(F)(F)F)CCN1C=O [Example 111, (2S)-4-[2-(2-Aminopyrimidin-5-yl)-6-morpholin-4-yl-9-(2,2,2-trifluoroethyl)-9H-purin-8-yl]-2-methylpiperazine-1-carboaldehyde]
< 0.01 | ≤ 5 | ≤ 5 | ≤ 5 | CC(C)Cn1c(N2CCN(C(=O)CN(C)C)CC2)nc2c(N3CCOCC3)nc(-c3cnc(N)nc3)nc21 [Example 55, 5-(8-{4-[(Dimethylamino)acetyl]piperazin-1-yl}-9-isobutyl-6-morpholin-4-yl-9H-purin-2-yl)pyrimidin-2-amine]
< 0.01 | ≤ 5 | ≤ 5 | ≤ 5 | CNc1ncc(-c2nc(N3CCOCC3)c3nc(N4CCN(C(C)=O)[C@@H](C)C4)n(CC(F)(F)F)c3n2)cn1 [Example 107, 5-{8-[(3S)-4-Acetyl-3-methylpiperazin-1-yl]-6-morpholin-4-yl-9-(2,2,2-trifluoroethyl)-9H-purin-2-yl}-N-methylpyrimidin-2-amine]

Continued, compound first:

Compound | IC50 (PI3Kα) [µM] | GI50 [1] [µM] | GI50 [2] [µM] | GI50 [3] [µM]
CS(=O)(=O)C1CCN(c2nc3c(N4CCOCC4)nc(-c4cnc(N)nc4)nc3n2CC(F)(F)F)CC1 [Example 57, 5-{8-[4-(Methylsulfonyl)piperidin-1-yl]-6-morpholin-4-yl-9-(2,2,2-trifluoroethyl)-9H-purin-2-yl}pyrimidin-2-amine] | < 0.01 | ≤ 5 | ≤ 5 | ≤ 5
CC(C)Cn1c(N2CCN(C(=O)[C@H](C)O)[C@H](C)C2)nc2c(N3CCOCC3)nc(-c3cnc(N)nc3)nc21 [Example 103, (2S)-1-{(2R)-4-[2-(2-Aminopyrimidin-5-yl)-9-isobutyl-6-morpholin-4-yl-9H-purin-8-yl]-2-methylpiperazin-1-yl}-1-oxopropan-2-ol] | 0.01 to 0.02 | ≤ 5 | ≤ 5 | ≤ 5
CC(C)Cn1c(N2CCN(C=O)[C@@H](C)C2)nc2c(N3CCOCC3)nc(-c3cnc(N)nc3)nc21 [Example 102, (2S)-4-[2-(2-Aminopyrimidin-5-yl)-9-isobutyl-6-morpholin-4-yl-9H-purin-8-yl]-2-methylpiperazine-1-carboaldehyde] | < 0.01 | ≤ 5 | ≤ 5 | ≤ 5
CC(=O)N1CCN(c2nc3c(N4CCOCC4)nc(-c4cnc(N)nc4)nc3n2CC(C)C)C[C@@H]1C [Example 101, 5-{8-[(3S)-4-Acetyl-3-methylpiperazin-1-yl]-9-isobutyl-6-morpholin-4-yl-9H-purin-2-yl}pyrimidin-2-amine] | 0.01 to 0.02 | ≤ 5 | ≤ 5 | ≤ 5
C[C@H](O)CC(=O)N1CCN(c2nc3c(N4CCOCC4)nc(-c4cnc(N)nc4)nc3n2CC(F)(F)F)CC1 [Example 69, (2S)-4-{4-[2-(2-Aminopyrimidin-5-yl)-6-morpholin-4-yl-9-(2,2,2-trifluoroethyl)-9H-purin-8-yl]piperazin-1-yl}-4-oxobutan-2-ol] | < 0.01 | ≤ 5 | ≤ 5 | ≤ 5
CC(=O)N1CCN(c2nc3c(N4CCOCC4)nc(-c4cnc(N)nc4)nc3n2CC(F)(F)F)C[C@H]1C [Example 60, 5-{8-[(3R)-4-Acetyl-3-methylpiperazin-1-yl]-6-morpholin-4-yl-9-(2,2,2-trifluoroethyl)-9H-purin-2-yl}pyrimidin-2-amine] | < 0.01 | ≤ 5 | ≤ 5 | ≤ 5
C[C@H](O)C(=O)N1CCN(c2nc3c(N4CCOCC4)nc(-c4cnc(N)nc4)nc3n2CC(F)(F)F)CC1 [Example 68, (2S)-1-{4-[2-(2-Aminopyrimidin-5-yl)-6-morpholin-4-yl-9-(2,2,2-trifluoroethyl)-9H-purin-8-yl]piperazin-1-yl}-1-oxopropan-2-ol] | 0.01 to 0.02 | ≤ 5 | ≤ 5 | ≤ 5
CC[C@@H]1CN(c2nc3c(N4CCOCC4)nc(-c4cnc(N)nc4)nc3n2CC(F)(F)F)CCN1C(=O)[C@H](C)O [Example 79] | < 0.01 | ≤ 5 | ≤ 5 | ≤ 5
CC(=O)N1CCN(c2nc3c(N4CCOCC4)nc(-c4cnc(N)nc4)nc3n2CC(F)(F)F)C[C@@H]1C [Example 63, 5-{8-[(3S)-4-Acetyl-3-methylpiperazin-1-yl]-6-morpholin-4-yl-9-(2,2,2-trifluoroethyl)-9H-purin-2-yl}pyrimidin-2-amine] | < 0.01 | ≤ 5 | ≤ 5 | ≤ 5
CC(=O)N1CCN(c2nc3c(N4CCOC[C@@H]4C)nc(-c4cnc(N)nc4)nc3n2CC(C)C)CC1 [Example 129, 5-{8-(4-Acetylpiperazin-1-yl)-9-isobutyl-6-[(3S)-3-methylmorpholin-4-yl]-9H-purin-2-yl}pyrimidin-2-amine] | 0.01 to 0.02 | ≤ 5 | ≤ 5 | ≤ 5
C[C@@H]1CN(c2nc3c(N4CCOCC4)nc(-c4cnc(N)nc4)nc3n2CC(F)(F)F)C[C@H](C)N1 [Example 14, 5-[8-(cis-3,5-Dimethylpiperazin-1-yl)-6-morpholin-4-yl-9-(2,2,2-trifluoroethyl)-9H-purin-2-yl]pyrimidin-2-amine] | < 0.01 | ≤ 5 | ≤ 5 | ≤ 5
CC(C)Cn1c(N2CCN(S(C)(=O)=O)[C@H](C)C2)nc2c(N3CCOCC3)nc(-c3cnc(N)nc3)nc21 [Example 54, 5-{9-Isobutyl-8-[(3R)-3-methyl-4-(methylsulfonyl)piperazin-1-yl]-6-morpholin-4-yl-9H-purin-2-yl}pyrimidin-2-amine] | 0.01 to 0.02 | ≤ 5 | ≤ 5 | ≤ 5
CC[C@H]1CN(c2nc3c(N4CCOCC4)nc(-c4cnc(N)nc4)nc3n2CC(F)(F)F)CCN1S(C)(=O)=O [Example 76, 5-{8-[(3S)-3-Ethyl-4-(methylsulfonyl)piperazin-1-yl]-6-morpholin-4-yl-9-(2,2,2-trifluoroethyl)-9H-purin-2-yl}pyrimidin-2-amine] | < 0.01 | ≤ 5 | ≤ 5 | ≤ 5
CN(C)C(=O)C(=O)N1CCN(c2nc3c(N4CCOCC4)nc(-c4cnc(N)nc4)nc3n2CC(F)(F)F)CC1 [Example 66, 2-{4-[2-(2-Aminopyrimidin-5-yl)-6-morpholin-4-yl-9-(2,2,2-trifluoroethyl)-9H-purin-8-yl]piperazin-1-yl}-N,N-dimethyl-2-oxoacetamide] | < 0.01 | ≤ 5 | ≤ 5 | ≤ 5
